Like-named read-outs stand apart in the source and are kept apart here.
How the values were obtained:
[1] = system: human RAR-γ; experiment: RAR-γ transactivation assay (SeAP reporter, COS cells); format: cell-based; conditions: for Transactivation % max (γ): relative to all-trans-retinoic acid at same concentration (1,000 nM or 10,000 nM)
Procedure: (§1) Retinoid Receptor Transactivation Assays
(§2) Transactivation assays were performed essentially as described in Apfel et al., supra. For the RAR transcription activation test system, the secreted alkaline phosphatase gene (SeAP) is used as reporter. To have a screening system specific for the transfected receptor, chimeric receptors are used. These contain an estrogen receptor DNA binding domain and therefore recognize the estrogen response element (ERE) which no endogenous RAR's in mammalian cells will recognize.
(§3) The transactivation assay system has been adapted to 96-well plates and most steps are done by a robot. Briefly, on day 1 confluent COS cells are subcultured at an equivalent density onto 96-well plates in DMEM+10% charcoal stripped serum. On day 2 DNA is prepared for transfection by mixing the following: 10 μg vit-TK-SeAP reporter plasmid, 2 μg RAR expression plasmid, 2 μg transfection control plasmid and 30 μl Transfectam (lipopolyamine transfection reagent). Cells are washed twice with serum-free medium and DNA/transfectam mix added. After 1 hour medium is removed and replaced with growth medium containing test retinoids. On day 4 or 5 the culture supernatant is removed, heated to 65° for 5 min to inactivate nonspecific phosphatases, and diluted 1:10 with water. 20 μl samples are added to 100 μl of phosphatase substrate in buffer. After 1 hour at 37° the luminescence is measured in a 96-well luminometer.
(§4) 100 μl of β-galactosidase substrate is added to the adherent cells. Plates are incubated for 1 hour at 37° and the supernatants transferred to separate plates for quantitation of β-galactosidase activity by luminescence measurement. Transactivation results are expressed as the ratio of SeAP/β-galactosidase activity for each well to correct for well-to-well variation in transfection efficiency.
(§5) Data are means of values obtained from two or more individual experiments, rounded off to two significant figures. […] The maximum transactivation activity is determined from the plot where increasing dosage provides little or no additional activity, i.e., where the plot begins to level off. For active retinoids the highest concentration tested is 1000 nM.

[2] = system: photodamaged skin; experiment: Measurement of photodamage repair in the hairless mouse model; format: in vivo, Hairless mice (female, HRS/J strain); conditions: for Photodamage repair activity (scale 0 to 4): UVB-irradiated, topical in acetone three times per week, three doses
Source text: The ability of a composition of the invention to induce repair of photodamaged skin may be determined by any conventional means. One conventional method of determining the ability of a topical composition to repair photodamaged skin is the hairless mouse model described by Kligman et al., supra. […] In this model, repair is defined by the appearance of a zone of normalized dermis extending from the epidermis down to the layer of compressed elastin. The extent of repair is reflected by the width of this zone. […] The average width of the repair zone is then calculated by dividing the area by the length of the histological section that was measured.
The width of the repair zone is […] an activity value of 4.
Measurement of Photodamage Repair
Hairless mice (female, HRS/J strain, Jackson Labs, 5-7 weeks old at the start of the experiments) were housed in yellow light and irradiated three times per week with a bank of 8 Westinghouse Sunlamps (FS120) placed about 20 cm above the animals. Daily doses were 0.03 J/cm^2 for two weeks, 0.06 J/cm2 for two weeks and 0.08 J/cm2 thereafter. The radiation dose is controlled by an International Light Model IL844A Phototherapy Exposure Control and a model SEE240 detector.
To effect repair of the dermal damage, the UVB irradiation was discontinued and the animals were divided into groups of approximately eight and treated three times per week with various concentrations of the retinoids dissolved in acetone. Stock solutions are made up freshly every week in subdued light at concentrations such that the dose is delivered in 100 μl volume and applied topically with a plastic pipette to an area of about 10 cm^2 on the back of the animal. All dosing was done under yellow light. A control group treated with acetone alone was included.
Two-cm strips of dorsal skin were taken longitudinally down the center of the irradiated (and treated) area. Elastin fibers were stained with Luna's aldehyde fuchsin and collagen by Van Gieson. In this model, repair is defined by the appearance of a normalized dermis extending from the epidermis down to the layer of compressed elastin. The extent of repair is reflected by the width of this zone. […] Twenty-four fields each of which, at 100X magnification, represents a section of tissue 0.57 mm long, are examined and the area calculated. The results are reported as the average area per field in mm^2. Thus the average width of the repair zone can be obtained by dividing this average area by 0.57 mm. […] All microscopic fields are included in the calculations of average area (or width). Data are analyzed by Student's t-test.
Compounds are tested at three doses and an approximate ED50 calculated.

[3] = system: human RAR-α; experiment: RAR-α transactivation assay (SeAP reporter, COS cells); format: cell-based; conditions: for Transactivation % max (α): relative to all-trans-retinoic acid at same concentration (1,000 nM or 10,000 nM)
Procedure: as §1, §2, §3, §4, §5

[4] = system: RAR-β; experiment: RAR-β transactivation assay (SeAP reporter, COS cells); format: cell-based, human; conditions: for Transactivation % max (β): relative to all-trans-retinoic acid at same concentration (1,000 nM or 10,000 nM)
Procedure: as §1, §2, §3, §4, §5

[5] = biological target: human RAR-γ; experiment: Binding assay for human RAR-γ (displacement of 3H-retinoic acid); conditions: 3H-retinoic acid displacement, mean of two or more experiments
Procedure: (§6) Binding Assay for Human RAR-α, RAR-β and RAR-γ
(§7) Binding assays were performed essentially as described in Apfel et al., supra. […] Extracts containing the receptors were used in a competitive binding assay which depends upon the ability of increasing concentrations of a retinoid to displace ^3 H-retinoic acid. In a typical assay, 0.2 to 0.4 picomoles of receptors were incubated in 0.2 ml of 50 mM Tris HCl, pH 7.4, 50 mM NaCl, 2 mM EDTA (binding buffer) containing 0.5% gelatin, 1% DMSO, 2-5 nM ^3 H-retinoic acid and various concentrations of unlabelled retinoids. After 3-5 hours at 22° C., 0.15 ml of chilled charcoal/dextran suspension (5% Norit A/0.5% dextran T-40 in binding buffer) were added for 15 min at 4° C. The tubes were centrifuged at 12,000 x g for 15 minutes and the supernates counted. Binding parameters were calculated from competition curves using the Ligand program.
(§8) Data are means of values obtained from two or more individual experiments, rounded off to two significant figures. […] When binding inhibition at 10,000 nM is less than 50%, >10,000 is indicated.

[6] = biological target: T1, human RAR-β (Homo sapiens, UniProt P10826); experiment: Binding assay for human RAR-β (displacement of 3H-retinoic acid); conditions: 3H-retinoic acid displacement, mean of two or more experiments
T1 sequence (P10826 201-455 limits assumed): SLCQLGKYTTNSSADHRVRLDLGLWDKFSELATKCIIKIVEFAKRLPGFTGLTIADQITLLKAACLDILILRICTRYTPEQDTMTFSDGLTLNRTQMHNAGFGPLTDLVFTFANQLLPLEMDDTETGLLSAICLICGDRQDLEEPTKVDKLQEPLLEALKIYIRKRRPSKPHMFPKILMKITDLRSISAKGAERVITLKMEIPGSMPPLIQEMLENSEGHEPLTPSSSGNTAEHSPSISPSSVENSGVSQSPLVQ
Procedure: as §6, §7, §8

[7] = biological target: T2, human RAR-α (Homo sapiens, UniProt P10276); experiment: Binding assay for human RAR-α (displacement of 3H-retinoic acid); conditions: 3H-retinoic acid displacement, mean of two or more experiments
T2 sequence (P10276 201-462 limits assumed): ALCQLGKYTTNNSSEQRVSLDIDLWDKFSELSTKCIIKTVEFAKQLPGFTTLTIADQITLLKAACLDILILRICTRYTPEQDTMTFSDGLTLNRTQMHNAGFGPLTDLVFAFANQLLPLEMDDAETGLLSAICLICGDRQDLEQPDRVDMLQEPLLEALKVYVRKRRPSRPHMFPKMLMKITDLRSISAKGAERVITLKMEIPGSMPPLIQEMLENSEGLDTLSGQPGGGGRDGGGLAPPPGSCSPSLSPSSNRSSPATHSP

[8] = RAR-γ, COS cells, 50% of the compound's own maximum, set to highest concentration tested (usually 1000 nM) if no maximum reached, read-out: Transactivation ED50 (γ)
[9] = COS cells, 50% of the compound's own maximum, set to highest concentration tested (usually 1000 nM) if no maximum reached, read-out: Transactivation ED50 (β)
[10] = COS cells, 50% of the compound's own maximum, set to highest concentration tested (usually 1000 nM) if no maximum reached, read-out: Transactivation ED50 (α)

| SMILES | IC50 [5] [µM] | EC50 [1, 8] [µM] | EC50 [4, 9] [µM] | EC50 [3, 10] [µM] | IC50 [6] [µM] | IC50 [7] [µM] | EC50 [1] [µM] | Transactivation % max (γ) ([1]; RAR-γ) [%] | Photodamage repair activity (scale 0 to 4) [2] | EC50 ([3]; read-out: Transactivation ED50 (α), COS cells, 50% of the compound's own maximum, set to highest concentration tested (usually 1000 nM) if no maximum reached) [µM] | Transactivation % max (α) [3] [%] | ED50 for photodamage repair ([2]; μg of test compound applied to 10 cm^2 of skin area, standard retinoid) [µg] | EC50 ([4]; read-out: Transactivation ED50 (β), COS cells, 50% of the compound's own maximum, set to highest concentration tested (usually 1000 nM) if no maximum reached) [µM] | Transactivation % max (β) [4] [%] |
| --- | --- | --- | --- | --- | --- | --- | --- | --- | --- | --- | --- | --- | --- | --- |
| CCCCCCCOc1cc2c(cc1/C(C)=C/c1ccc(C(=O)O)cc1)C(C)(C)CCS2(=O)=O [Compound L, p-[(E)-2-[3',4'-dihydro-4',4'-dimethyl-7'-(heptyloxy)-2'H-1-benzothiopyran-6'-yl]propenyl]benzoic acid 1',1'-dioxide, reference compound] | 4.2 | 1 | 1 | 1 | 4.7 | 0.07 | – | 18 | 0 | – | 14 | – | – | 14 |
| COc1cc(C)c(/C=C/C(C)=C/C=C/C(C)=C/C(=O)O)c(C)c1C [D, acitretin, reference compound] | […] | – | – | – | – | – | – | – | 0 | – | – | – | – | – |
| CCOC(=O)/C=C(C)/C=C/C=C(C)/C=C/c1c(C)cc(OC)c(C)c1C [E, etretinate, reference compound] | > 10 | 1 | 1 | 1 | > 10 | > 10 | – | 20 | 0 | – | 14 | – | – | 21 |
| C/C(=C\c1ccc(C(=O)O)cc1)c1ccc2c(c1)C(C)(C)CCC2(C)C [F] | – | – | – | – | – | – | – | – | 1 (an ED50 of 100 μg) | – | – | – | – | – |
| CC1(C)CCC(C)(C)c2cc(C(=O)Nc3ccc(C(=O)O)cc3)ccc21 [J] | – | – | – | – | – | – | – | – | 0 | – | – | – | – | – |
| CC1(C)CCC(C)(C)c2cc(NC(=O)c3ccc(C(=O)O)cc3)ccc21 [K] | – | – | – | – | – | – | – | – | 0 | – | – | – | – | – |
| CCCCCCc1cc2c(cc1/C=C/C=C/C(C)=C/C(=O)O)C(C)(C)CCC2(C)C [N] | 0.17 | 0.064 | 1 | 1 | 2.9 | 1.5 | – | 123 | 4 | – | 63 | – | – | 60 |

Now from value to compound, other results behind:

| IC50 [5] [µM] | EC50 [1, 8] [µM] | EC50 [4, 9] [µM] | EC50 [3, 10] [µM] | IC50 [6] [µM] | IC50 [7] [µM] | SMILES | EC50 [1] [µM] | Transactivation % max (γ) ([1]; RAR-γ) [%] | Photodamage repair activity (scale 0 to 4) [2] | EC50 ([3]; read-out: Transactivation ED50 (α), COS cells, 50% of the compound's own maximum, set to highest concentration tested (usually 1000 nM) if no maximum reached) [µM] | Transactivation % max (α) [3] [%] | ED50 for photodamage repair ([2]; μg of test compound applied to 10 cm^2 of skin area, standard retinoid) [µg] | EC50 ([4]; read-out: Transactivation ED50 (β), COS cells, 50% of the compound's own maximum, set to highest concentration tested (usually 1000 nM) if no maximum reached) [µM] | Transactivation % max (β) [4] [%] |
| --- | --- | --- | --- | --- | --- | --- | --- | --- | --- | --- | --- | --- | --- | --- |
| > 10 | 1 | 1 | 1 | > 10 | > 10 | C/C(=C\c1ccc(S(C)(=O)=O)cc1)c1ccc2c(c1)C(C)(C)CCC2(C)C [G] | – | 36 | 3 (an ED50 of 1 μg or less (highly active)) | – | 23 | – | – | 17 |
| > 10 | 1 | 1 | 1 | > 10 | > 10 | C/C(=C\c1ccccc1)c1ccc2c(c1)C(C)(C)CCC2(C)C [H] | – | 19 | 0 | – | 12 | – | – | 10 |
| > 10 | 1 | 1 | 1 | > 10 | > 10 | CCS(=O)(=O)c1ccc(/C=C(\C)c2ccc3c(c2)C(C)(C)CCC3(C)C)cc1 [I] | – | 21 | 3 (an ED50 of 1 μg or less (highly active)) | – | 10 | – | – | 21 |
| 0.21 | 0.015 | 0.088 | 1 | 2.3 | 2.2 | CCCCCCc1cc2c(cc1/C=C/c1ccc(C(=O)O)cc1)C(C)(C)CCC2(C)C [M] | – | 36 | 4 | – | 24 | – | – | 62 |
| 0.17 | 0.006 | 0.03 | 0.13 | 1.8 | 1.5 | CCCCc1cc2c(cc1/C=C/c1ccc(C(=O)O)cc1)C(C)(C)CCC2(C)C [O] | – | 105 | 4 | – | 56 | – | – | 88 |

— patent publication US5807900A, “Method for identifying compounds having increased activity for the repair of skin photodamage” (priority 1995, dated 1998)
